One data set deals with Angio Tube Area. In words: Anti-angiogenic activity, Angio Tube Area. The data set is classed as cell-based. The settings on record: read-out: Angio Tube Area % Inhibit. From the text: (§1) Selected compounds of this invention were screened for K-Ras Wnt synthetic lethal, anti-angiogenic activity, Wnt pathway modulatory activity, insulin and GLP-1 secretion modulatory activity, GPR119 receptor agonist activity, mGlu2R antagonist activity, CGRP receptor antagonist activity, Apelin receptor agonist activity and hexokinase 2 inhibitory activity using the PD^2 and TD^2 Screening Panel (Eli Lilly & Company). See Lee, et al. (2011) J. Biomol. Screen. 16:588-602.

The subject of another data set is RKO. In words: K-Ras Wnt synthetic lethal, RKO KrasSL. It is filed as cell-based. The following applies: Homo sapiens, average of three independent experiments, read-out: RKO KrasSL % Inhibit.
From the text: as §1

The next data set has as its target T1, hHK2 (Homo sapiens, UniProt P52789).
T1 sequence (P52789 1-917): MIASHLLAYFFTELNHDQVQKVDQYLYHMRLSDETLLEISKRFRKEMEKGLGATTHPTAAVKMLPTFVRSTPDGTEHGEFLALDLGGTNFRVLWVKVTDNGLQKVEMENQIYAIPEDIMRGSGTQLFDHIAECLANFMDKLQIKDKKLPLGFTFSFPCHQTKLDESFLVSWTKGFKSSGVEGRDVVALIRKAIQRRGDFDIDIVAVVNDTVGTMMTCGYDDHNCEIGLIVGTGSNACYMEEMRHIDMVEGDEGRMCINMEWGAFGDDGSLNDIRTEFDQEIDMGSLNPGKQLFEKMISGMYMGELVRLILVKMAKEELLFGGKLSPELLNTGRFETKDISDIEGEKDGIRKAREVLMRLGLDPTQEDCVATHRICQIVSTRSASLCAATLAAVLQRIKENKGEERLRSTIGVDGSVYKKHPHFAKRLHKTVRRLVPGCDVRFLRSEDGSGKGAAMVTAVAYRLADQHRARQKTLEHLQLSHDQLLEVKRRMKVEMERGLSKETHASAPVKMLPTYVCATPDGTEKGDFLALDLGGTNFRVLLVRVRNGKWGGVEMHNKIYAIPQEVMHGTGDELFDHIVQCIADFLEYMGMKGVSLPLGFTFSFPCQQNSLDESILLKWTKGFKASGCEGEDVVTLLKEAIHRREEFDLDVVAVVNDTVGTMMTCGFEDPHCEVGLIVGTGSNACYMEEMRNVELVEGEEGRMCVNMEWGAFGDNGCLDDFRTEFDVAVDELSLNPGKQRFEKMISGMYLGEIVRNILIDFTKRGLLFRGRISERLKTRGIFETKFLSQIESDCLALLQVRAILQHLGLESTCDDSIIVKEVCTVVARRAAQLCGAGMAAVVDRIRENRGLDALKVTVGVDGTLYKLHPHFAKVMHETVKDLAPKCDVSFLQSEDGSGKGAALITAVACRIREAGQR
In words: Hexokinase 2 inhibitor, hHK2 ADP-FP. It is filed as biochemical.
From the text: as §1

The test system of data set [1] is mSTC-1. In words: mSTC-1 GLP-1 secretion. The settings on record: for EC50: concentration response curve, read-out: Primary CRC (EC50, μM) mSTC. It is filed as cell-based. As for the experimental part: (§2) In light of the above results, additional compounds (Table 7) were prepared and phenotypic assays were carried out using hNCI-H716 and mSTC-1 cell lines to monitor GLP-1 secretion (single point (SP) and concentration response curves (CRC)) (Table 8), as well as a secondary assay with pituitary cells (Table 9).

A further data set deals with hCGRP1 (Homo sapiens, UniProt O60894+Q16602). In words: CGRP receptor antagonist, hCGRP1 antagonism. The data set is classed as cell-based.
From the text: as §1

For a further data set, the system named is Wnt Pathway. In words: Wnt pathway modulatory activity, Osteo bCat. The data set is classed as cell-based.
From the text: as §1

In a further data set the test system is SNU-C1. As to the kind of experiment: K-Ras Wnt synthetic lethal, SNU-C1 KrasSL. It is filed as cell-based. The following applies: Homo sapiens, read-out: SNU-C1 KrasSL % Inhibit.
From the text: as §1

The subject of a further data set is Insulin Secretion. In words: Insulin secretion, Secretion Hi Gluc. It is filed as cell-based.
From the text: as §1

The subject of a further data set is HCT116. In words: K-Ras Wnt synthetic lethal, HCT116 KrasSL. The data set is classed as cell-based. The following applies: Homo sapiens, HCT-116, read-out: HCT116 KrasSL % Inhibit.
From the text: as §1

In another data set the target is T2, hApelin (Homo sapiens, UniProt P35414).
T2 sequence (P35414 1-380): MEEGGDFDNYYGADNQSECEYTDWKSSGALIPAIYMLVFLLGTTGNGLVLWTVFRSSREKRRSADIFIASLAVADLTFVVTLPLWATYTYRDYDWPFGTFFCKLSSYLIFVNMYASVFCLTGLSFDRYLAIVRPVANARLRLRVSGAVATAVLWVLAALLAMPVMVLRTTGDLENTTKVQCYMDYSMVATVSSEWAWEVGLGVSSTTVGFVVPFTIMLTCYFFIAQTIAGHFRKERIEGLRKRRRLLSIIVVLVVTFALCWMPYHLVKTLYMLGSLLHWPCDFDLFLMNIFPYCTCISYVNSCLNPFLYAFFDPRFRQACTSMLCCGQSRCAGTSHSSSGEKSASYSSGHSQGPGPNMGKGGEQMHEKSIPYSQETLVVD
In words: Apelin receptor agonist, hApelin agonism. The data set is classed as cell-based. The following applies: @ 30 μM.
From the text: as §1

In the next data set the target is hMGLUR2 (Homo sapiens, UniProt Q14416). In words: mGlu2R antagonist, hMGLUR2. It is filed as cell-based.
From the text: as §1

The test system of the next data set is Co1o320. As to the kind of experiment: K-Ras Wnt synthetic lethal, Co1o320 KrasSL. The following applies: read-out: Co1o320 KrasSL % Inhibit. It is filed as cell-based.
From the text: as §1

The target of the next data set is T3, hGPR119 (Homo sapiens, UniProt Q8TDV5).
T3 sequence (Q8TDV5 1-335): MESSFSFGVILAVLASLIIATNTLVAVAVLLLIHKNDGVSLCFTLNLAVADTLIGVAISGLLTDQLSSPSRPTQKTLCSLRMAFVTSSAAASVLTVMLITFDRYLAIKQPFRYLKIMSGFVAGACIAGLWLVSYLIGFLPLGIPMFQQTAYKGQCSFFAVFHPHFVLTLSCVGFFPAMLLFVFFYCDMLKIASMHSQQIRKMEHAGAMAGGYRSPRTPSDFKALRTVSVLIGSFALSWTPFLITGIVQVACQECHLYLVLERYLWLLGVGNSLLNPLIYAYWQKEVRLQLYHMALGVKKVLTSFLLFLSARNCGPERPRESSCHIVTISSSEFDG
In words: GPR119 receptor agonist, hGPR119 agonism. The data set is classed as cell-based. The following applies: @ 10 μM.
From the text: as §1

The next data set has as its system Pituitary Cells. As to the kind of experiment: Secondary assay, pituitary cells growth hormone secretion. The data set is classed as cell-based. The settings on record: @ 3.3 μM. As for the experimental part:
as §2

Data set [2] has as its system hNCI-H716. As to the kind of experiment: hNCI-H716 GLP-1 secretion. The data set is classed as cell-based. The settings on record: for activation at 2 µM / activation at 20 µM / Primary SP hNCI (% Stim.): single point; for activation at 2 µM / activation at 20 µM: read-out: Primary SP hNCI (% Stim.).
From the text: as §1, §2

A further data set deals with GLP-1 (X-36 amide). In words: Plasma GLP-1 response to oral compound in mice. The data set is classed as in vivo, Mice (male C57BL/6). The following applies: oral 100 mg/kg, plasma 30 minutes post-dose. The protocol: (§3) Mice (male C57BL/6, 8-10 weeks of age) were fasted overnight by being placed in a clean cage without food. The next day, all mice were weighed and assigned to groups of similar body weights. Test compounds were formulated in 1% HEC, 0.25% TWEEN 80, 0.05% antifoam (vehicle control). Compounds 11ls and llu were orally dosed (100 mg/kg) and cardiac sticks were done on CO2 euthanized mice at 30 minutes post-dose. Blood (500+μL whole blood) from the cardiac stick was placed in chilled EDTA-plasma tubes with inhibitors, DPP4 inhibitor (5 μL/500 μL blood) and aprotinin (bovine lung, […]/500 μL blood), and stored on ice. Plasma was separated by centrifugation and aliquoted for compound exposure to total GIP and GLP-1 (X-36 amide). Plates for compound exposure were analyzed for absorption, distribution, metabolism, and excretion, while conventional kits were used for GLP-1 (x-36) amide (Mesoscale) and GIP (Millipore) analyses.

The next data set relates to GIP. In words: Plasma GIP response to oral compound in mice. The data set is classed as in vivo, Mice (male C57BL/6). The settings on record: oral 100 mg/kg, plasma 30 minutes post-dose. As for the experimental part: as §3
Data set [3] deals with hNCI-H716. In words: hNCI basal LDH secretion. The data set is classed as cell-based. The settings on record: read-out: Primary CRC (EC50, μM) hNCI Basal. As for the experimental part:
as §2

Data set [4] is described as follows: Plasma compound exposure after oral dosing in mice. It is filed as in vivo, Mice (male C57BL/6). The settings on record: oral 100 mg/kg, 30 minutes post-dose. The protocol:
as §3

The test system of data set [5] is mSTC-1. In words: mSTC LDH secretion. The data set is classed as cell-based. The following applies: read-out: Primary CRC (EC50, μM) mSTC LDH. As for the experimental part: as §2
Setting [6] is: GLP-1 secretion, concentration response curve, read-out: Primary CRC (EC50, μM) hNCI.

Here are results for three compounds from patent publication US9598365B2, “Method for synthesizing cycloalkanyl[b]indoles, cycloalkanyl[b]benzofurans, cycloalkanyl[b]benzothiophenes, compounds and methods of use” (Trustees of Dartmouth College, priority 2012, dated 2017).

Values joined by “and” are separate entries in the source; they are usually repeats but may differ in a detail not shown here. Equal entries are not always repeated. Where only a bound is given, the exact number is not on record here.

Sequence of hMGLUR2 (Q14416 19-872): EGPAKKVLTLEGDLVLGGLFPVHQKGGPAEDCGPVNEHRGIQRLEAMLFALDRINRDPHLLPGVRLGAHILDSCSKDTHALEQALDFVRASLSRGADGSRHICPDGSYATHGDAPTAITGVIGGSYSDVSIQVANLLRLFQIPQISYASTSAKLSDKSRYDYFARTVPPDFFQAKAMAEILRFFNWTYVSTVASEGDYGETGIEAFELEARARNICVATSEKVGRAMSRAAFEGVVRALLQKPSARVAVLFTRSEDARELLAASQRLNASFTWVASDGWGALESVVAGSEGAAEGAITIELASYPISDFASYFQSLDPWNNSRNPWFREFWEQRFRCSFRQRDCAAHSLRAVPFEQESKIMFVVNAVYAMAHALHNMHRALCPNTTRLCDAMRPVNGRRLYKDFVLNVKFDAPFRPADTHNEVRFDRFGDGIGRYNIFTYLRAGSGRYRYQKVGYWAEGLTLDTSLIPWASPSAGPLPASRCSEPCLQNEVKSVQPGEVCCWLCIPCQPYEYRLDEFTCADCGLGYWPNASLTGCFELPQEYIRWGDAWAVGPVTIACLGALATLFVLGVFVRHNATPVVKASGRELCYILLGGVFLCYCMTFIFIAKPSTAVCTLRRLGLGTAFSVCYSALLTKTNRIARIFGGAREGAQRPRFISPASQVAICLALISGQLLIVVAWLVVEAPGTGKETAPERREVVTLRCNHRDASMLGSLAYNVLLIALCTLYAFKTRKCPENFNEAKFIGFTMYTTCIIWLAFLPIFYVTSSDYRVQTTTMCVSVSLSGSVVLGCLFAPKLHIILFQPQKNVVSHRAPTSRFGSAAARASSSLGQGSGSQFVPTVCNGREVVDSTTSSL
Sequence of hCGRP1 (Q16602 23-461): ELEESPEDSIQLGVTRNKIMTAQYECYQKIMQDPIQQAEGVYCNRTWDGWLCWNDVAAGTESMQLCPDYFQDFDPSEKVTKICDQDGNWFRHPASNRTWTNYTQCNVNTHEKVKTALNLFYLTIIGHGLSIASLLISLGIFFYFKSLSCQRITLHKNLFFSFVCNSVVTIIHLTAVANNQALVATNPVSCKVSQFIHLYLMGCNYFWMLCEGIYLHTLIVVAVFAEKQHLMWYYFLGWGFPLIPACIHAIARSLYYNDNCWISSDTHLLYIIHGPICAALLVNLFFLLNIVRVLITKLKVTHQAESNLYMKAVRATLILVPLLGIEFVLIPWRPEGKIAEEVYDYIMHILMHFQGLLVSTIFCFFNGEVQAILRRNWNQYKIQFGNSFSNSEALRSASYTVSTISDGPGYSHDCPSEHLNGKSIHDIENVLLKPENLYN
Sequence of hCGRP1 (O60894 27-148 partner): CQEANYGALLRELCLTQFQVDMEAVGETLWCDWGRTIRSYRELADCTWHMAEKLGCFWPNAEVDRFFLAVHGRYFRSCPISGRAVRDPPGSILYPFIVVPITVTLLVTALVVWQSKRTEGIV

With `CC1(C)c2c([nH]c3ccc(Br)cc23)C2C=CC1C2` (centres unmarked) [Compound 11t], the inhibition at 2 µM with Angio Tube Area (@ 2 μM) was 8%; in the data set on RKO (@ 2 μM), 17.6%; with SNU-C1 (@ 2 μM) it was -19.1%; with HCT116 (@ 2 μM), -11.5%; in the data set on Co1o320 (@ 2 μM), 23.1%. Moreover, the inhibition at 10 µM with Angio Tube Area (@ 10 μM) is 38%. For the same compound, the inhibition at 0.2 µM in the data set with RKO (@ 0.2 μM) is -5.8%; in the data set with SNU-C1 (@ 0.2 μM) it was -1%; in the data set on HCT116 (@ 0.2 μM), 5.3%; with Co1o320 (@ 0.2 μM) it was -6.6%. Besides, the inhibition at 20 µM with RKO (@ 20 μM) was determined as 102%; at hHK2, 3.2%; with SNU-C1 (@ 20 μM) it was 107%; with HCT116 (@ 20 μM) it was 104%; with Co1o320 (@ 20 μM) it was 152%. Further, the EC50 is 2.4 µM and 4.1 µM and 2.2 µM with mSTC-1 [1]; 29.1 µM and 17.6 µM and 16.4 µM with hNCI-H716 [2] (setting [6]); 29.1 µM in the data set with hNCI-H716 [2] (average of three independent experiments, read-out: hNCI GLP-1 Secretion EC50); 29 µM in the data set on hNCI-H716 [2] (secretion and/or production of GLP-1, read-out: EC50 values (Table 6)). Besides, at hCGRP1, the inhibition at 30 µM was 67.7%. Moreover, the “Osteo bCat % Stimulation” value with Wnt Pathway (@ 2 μM) was 1.8%; in the data set on Wnt Pathway (@ 10 μM), 5.5%. Also, the entries for the “Secretion Hi Gluc % Stimulation” value in the data set with Insulin Secretion (@ 2 μM) and in the data set with Insulin Secretion (@ 10 μM) were 0.1% and 19.1%, respectively. The “hApelin agonism % Stimulation” value at hApelin is given as −52.8%. Moreover, at hMGLUR2, the inhibition at 50 µM was -19.7%. Besides, at hGPR119, the “hGPR119 agonism % Stimulation” value was −2.3%. In addition, the “Pituitary Cells (Growth Hormone Secretion, % Stimulation)” value in the data set with Pituitary Cells was −12.6% and −7.1%. Moreover, in the data set with hNCI-H716 [2] (2 μM, GLP-1 secretion), the activation at 2 µM was 0%. In the data set with hNCI-H716 [2] (20 μM, GLP-1 secretion), the activation at 20 µM is 35.2%. Further, the “hNCI GLP-1 Secretion % Stimulation” value with hNCI-H716 [2] (@ 2 μM) came out at 0%; with hNCI-H716 [2] (@ 20 μM), 35.2%.

Take `CC1(C)c2c([nH]c3ccc(I)cc23)C2C=CC1C2` (centres unmarked) [Compound 11u]: the “Avg. GLP-1 (pg/mL) ±SEM” value in the data set with GLP-1 (X-36 amide) came out at 7.66 ± 0.89 pg/mL. The EC50 with mSTC-1 [1] was 2 µM and 3.2 µM; with hNCI-H716 [3], 35.8 µM. For the same compound, the “Avg. GIP (pg/mL) ±SEM” value in the data set on GIP was 26.23 ± 10.35 pg/mL. Also, in data set [4], the “mean (±standard deviation) plasma levels” value is 201.6 ± 37.24 ng/mL. Besides, the “Primary SP hNCI (% Stim.)” value with hNCI-H716 [2] (2 μM, GLP-1 secretion) was 0%; in the data set with hNCI-H716 [2] (20 μM, GLP-1 secretion), 57%.

On to `CC1(C)C(=O)C[C@@]2(C)c3ccccc3N(Cc3ccccc3)[C@@]12C` [Compound 30], for which the EC50 in the data set with mSTC-1 [5] was greater than 40 µM; with mSTC-1 [1] it was 0.85 µM and 0.51 µM; in the data set with hNCI-H716 [3] it was greater than 40 µM; with hNCI-H716 [2] (setting [6]), greater than 40 µM. For the same compound, the activation at 2 µM with mSTC-1 [1] (2 μM, single point, read-out: Primary SP mSTC (% Stim.)) came out at 49.9%; in the data set with hNCI-H716 [2] (2 μM, GLP-1 secretion), 3.1%. In addition, the activation at 20 µM with mSTC-1 [1] (20 μM, single point, read-out: Primary SP mSTC (% Stim.)) was 49.9%; with hNCI-H716 [2] (20 μM, GLP-1 secretion), -0.2%.

Broadly, the EC50 is the concentration needed to bring the measured effect to its halfway point.
